PubChem BioAssay (NCI)
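Protocol summary: plate cells (96-well), add compound at 5 concentrations, incubate 48 h, interpolate endpoints linearly. TGI marks complete inhibition of growth.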

Legend:
Assay in all cases: NCI-60 cell line screen, 48 h
COLO 205 colon = test system: COLO 205 colon
SNB-19 CNS = test system: SNB-19 CNS
SW-620 colon = test system: SW-620 colon
OVCAR-3 ovarian = test system: OVCAR-3 ovarian
MDA-N = test system: MDA-N
OVCAR-8 ovarian = test system: OVCAR-8 ovarian
NCI-H226 lung = test system: NCI-H226 lung
CCRF-CEM leukemia = test system: CCRF-CEM leukemia
ACHN renal = test system: ACHN renal
SF-295 CNS = test system: SF-295 CNS
TK-10 renal = test system: TK-10 renal
SNB-75 CNS = test system: SNB-75 CNS
A549 NSCLC = test system: A549 NSCLC
U251 CNS = test system: U251 CNS
MCF7 breast = test system: MCF7 breast
HT29 colon = test system: HT29 colon
SF-539 CNS = test system: SF-539 CNS
T-47D breast = test system: T-47D breast
K-562 leukemia = test system: K-562 leukemia
SN12C renal = test system: SN12C renal
MDA-MB-231 breast = test system: MDA-MB-231 breast
NCI-H23 lung = test system: NCI-H23 lung
HCT-116 colon = test system: HCT-116 colon
HCT-15 colon = test system: HCT-15 colon
PC-3 prostate = test system: PC-3 prostate
OVCAR-4 ovarian = test system: OVCAR-4 ovarian
MDA-MB-435 = test system: MDA-MB-435
LOX IMVI melanoma = test system: LOX IMVI melanoma
A498 renal = test system: A498 renal
IGROV1 ovarian = test system: IGROV1 ovarian
NCI-H522 lung = test system: NCI-H522 lung
HOP-62 NSCLC = test system: HOP-62 NSCLC
OVCAR-5 ovarian = test system: OVCAR-5 ovarian
UACC-257 melanoma = test system: UACC-257 melanoma
HL-60(TB) leukemia = test system: HL-60(TB) leukemia
SK-OV-3 ovarian = test system: SK-OV-3 ovarian
EKVX NSCLC = test system: EKVX NSCLC
HCC-2998 colon = test system: HCC-2998 colon
KM12 colon = test system: KM12 colon
SK-MEL-5 melanoma = test system: SK-MEL-5 melanoma
M14 melanoma = test system: M14 melanoma
UACC-62 melanoma = test system: UACC-62 melanoma
RPMI-8226 leukemia = test system: RPMI-8226 leukemia
HOP-92 NSCLC = test system: HOP-92 NSCLC
SK-MEL-28 melanoma = test system: SK-MEL-28 melanoma
BT-549 breast = test system: BT-549 breast
UO-31 renal = test system: UO-31 renal
CAKI-1 renal = test system: CAKI-1 renal
786-0 renal = test system: 786-0 renal
MALME-3M melanoma = test system: MALME-3M melanoma
MOLT-4 leukemia = test system: MOLT-4 leukemia
NCI/ADR-RES ovarian = test system: NCI/ADR-RES ovarian
SK-MEL-2 melanoma = test system: SK-MEL-2 melanoma
HS 578T breast = test system: HS 578T breast
DU-145 prostate = test system: DU-145 prostate
SF-268 CNS = test system: SF-268 CNS
NCI-H460 lung = test system: NCI-H460 lung
RXF 393 renal = test system: RXF 393 renal

C[C@H]1[C@H](N2CCCC2)O[Si](C(C)(C)C)(C(C)(C)C)[C@@H]1C
TGI (COLO 205 colon): > 100 µM | TGI (SNB-19 CNS): > 100 µM | TGI (SW-620 colon): > 100 µM | TGI (OVCAR-3 ovarian): > 100 µM | TGI (MDA-N): > 100 µM | TGI (OVCAR-8 ovarian): > 100 µM | TGI (NCI-H226 lung): > 100 µM | TGI (CCRF-CEM leukemia): > 100 µM | TGI (ACHN renal): > 100 µM | TGI (SF-295 CNS): > 100 µM | TGI (TK-10 renal): > 100 µM | TGI (SNB-75 CNS): > 100 µM | TGI (A549 NSCLC): > 100 µM | TGI (U251 CNS): > 100 µM | TGI (MCF7 breast): > 100 µM | TGI (HT29 colon): > 100 µM | TGI (SF-539 CNS): > 100 µM | TGI (T-47D breast): > 100 µM | TGI (K-562 leukemia): > 100 µM | TGI (SN12C renal): > 100 µM | TGI (MDA-MB-231 breast): > 100 µM | TGI (NCI-H23 lung): > 100 µM | TGI (HCT-116 colon): > 100 µM | TGI (HCT-15 colon): > 100 µM | TGI (PC-3 prostate): > 100 µM | TGI (OVCAR-4 ovarian): > 100 µM | TGI (MDA-MB-435): > 100 µM | TGI (LOX IMVI melanoma): > 100 µM | TGI (A498 renal): > 100 µM | TGI (IGROV1 ovarian): > 100 µM | TGI (NCI-H522 lung): > 100 µM | TGI (HOP-62 NSCLC): > 100 µM | TGI (OVCAR-5 ovarian): > 100 µM | TGI (UACC-257 melanoma): > 100 µM | TGI (HL-60(TB) leukemia): 48.5 µM | TGI (SK-OV-3 ovarian): > 100 µM | TGI (EKVX NSCLC): > 100 µM | TGI (HCC-2998 colon): > 100 µM | TGI (KM12 colon): > 100 µM | TGI (SK-MEL-5 melanoma): > 100 µM | TGI (M14 melanoma): > 100 µM | TGI (UACC-62 melanoma): > 100 µM | TGI (RPMI-8226 leukemia): > 100 µM | TGI (HOP-92 NSCLC): 4.7 µM | TGI (SK-MEL-28 melanoma): > 100 µM | TGI (BT-549 breast): > 100 µM | TGI (UO-31 renal): > 100 µM | TGI (CAKI-1 renal): > 100 µM | TGI (786-0 renal): > 100 µM | TGI (MALME-3M melanoma): > 100 µM | TGI (MOLT-4 leukemia): > 100 µM | TGI (NCI/ADR-RES ovarian): > 100 µM | TGI (SK-MEL-2 melanoma): > 100 µM

Cc1ccc(C(=O)N/N=C(\N=Nc2cccc([N+](=O)[O-])c2)c2ccc(N(C)C)cc2)cc1
TGI (HS 578T breast): > 100 µM | TGI (COLO 205 colon): > 100 µM | TGI (SNB-19 CNS): > 100 µM | TGI (SW-620 colon): > 100 µM | TGI (OVCAR-3 ovarian): > 100 µM | TGI (MDA-N): > 100 µM | TGI (DU-145 prostate): 85.5 µM | TGI (OVCAR-8 ovarian): > 100 µM | TGI (NCI-H226 lung): > 100 µM | TGI (CCRF-CEM leukemia): > 100 µM | TGI (SF-295 CNS): > 100 µM | TGI (TK-10 renal): > 100 µM | TGI (A549 NSCLC): > 100 µM | TGI (U251 CNS): > 100 µM | TGI (MCF7 breast): > 100 µM | TGI (HT29 colon): > 100 µM | TGI (SF-268 CNS): > 100 µM | TGI (SF-539 CNS): > 100 µM | TGI (K-562 leukemia): > 100 µM | TGI (SN12C renal): > 100 µM | TGI (MDA-MB-231 breast): > 100 µM | TGI (NCI-H23 lung): > 100 µM | TGI (HCT-116 colon): > 100 µM | TGI (HCT-15 colon): > 100 µM | TGI (PC-3 prostate): > 100 µM | TGI (OVCAR-4 ovarian): > 100 µM | TGI (MDA-MB-435): > 100 µM | TGI (LOX IMVI melanoma): > 100 µM | TGI (IGROV1 ovarian): > 100 µM | TGI (NCI-H522 lung): > 100 µM | TGI (OVCAR-5 ovarian): > 100 µM | TGI (UACC-257 melanoma): > 100 µM | TGI (HL-60(TB) leukemia): > 100 µM | TGI (EKVX NSCLC): > 100 µM | TGI (HCC-2998 colon): > 100 µM | TGI (KM12 colon): > 100 µM | TGI (SK-MEL-5 melanoma): > 100 µM | TGI (M14 melanoma): > 100 µM | TGI (RPMI-8226 leukemia): > 100 µM | TGI (HOP-92 NSCLC): > 100 µM | TGI (SK-MEL-28 melanoma): > 100 µM | TGI (BT-549 breast): > 100 µM | TGI (UO-31 renal): > 100 µM | TGI (CAKI-1 renal): > 100 µM | TGI (786-0 renal): > 100 µM | TGI (MOLT-4 leukemia): > 100 µM | TGI (NCI/ADR-RES ovarian): > 100 µM | TGI (SK-MEL-2 melanoma): > 100 µM | TGI (NCI-H460 lung): > 100 µM

Cc1ccc(-c2cc(-c3ccccc3)nc(N)n2)c(O)c1
TGI (COLO 205 colon): > 100 µM | TGI (SNB-19 CNS): > 100 µM | TGI (SW-620 colon): > 100 µM | TGI (OVCAR-3 ovarian): > 100 µM | TGI (MDA-N): > 100 µM | TGI (DU-145 prostate): > 100 µM | TGI (OVCAR-8 ovarian): > 100 µM | TGI (CCRF-CEM leukemia): > 100 µM | TGI (ACHN renal): > 100 µM | TGI (SF-295 CNS): > 100 µM | TGI (TK-10 renal): > 100 µM | TGI (A549 NSCLC): > 100 µM | TGI (U251 CNS): > 100 µM | TGI (MCF7 breast): > 100 µM | TGI (HT29 colon): > 100 µM | TGI (SF-268 CNS): > 100 µM | TGI (SF-539 CNS): > 100 µM | TGI (T-47D breast): > 100 µM | TGI (K-562 leukemia): > 100 µM | TGI (SN12C renal): > 100 µM | TGI (MDA-MB-231 breast): > 100 µM | TGI (NCI-H23 lung): > 100 µM | TGI (HCT-116 colon): > 100 µM | TGI (HCT-15 colon): > 100 µM | TGI (PC-3 prostate): > 100 µM | TGI (OVCAR-4 ovarian): > 100 µM | TGI (MDA-MB-435): > 100 µM | TGI (A498 renal): > 100 µM | TGI (NCI-H522 lung): > 100 µM | TGI (HOP-62 NSCLC): > 100 µM | TGI (OVCAR-5 ovarian): > 100 µM | TGI (UACC-257 melanoma): > 100 µM | TGI (HL-60(TB) leukemia): > 100 µM | TGI (SK-OV-3 ovarian): > 100 µM | TGI (HCC-2998 colon): > 100 µM | TGI (KM12 colon): > 100 µM | TGI (SK-MEL-5 melanoma): > 100 µM | TGI (M14 melanoma): > 100 µM | TGI (RXF 393 renal): > 100 µM | TGI (UACC-62 melanoma): > 100 µM | TGI (RPMI-8226 leukemia): > 100 µM | TGI (HOP-92 NSCLC): > 100 µM | TGI (SK-MEL-28 melanoma): > 100 µM | TGI (BT-549 breast): > 100 µM | TGI (UO-31 renal): > 100 µM | TGI (CAKI-1 renal): > 100 µM | TGI (786-0 renal): > 100 µM | TGI (MALME-3M melanoma): > 100 µM | TGI (MOLT-4 leukemia): > 100 µM | TGI (NCI/ADR-RES ovarian): > 100 µM | TGI (SK-MEL-2 melanoma): > 100 µM | TGI (NCI-H460 lung): > 100 µM
